In patent publication US7186863B2, “Sertraline compositions” (TransForm Pharmaceuticals, Inc., priority 2003, dated 2007):
Structures can show the parent of a compound that is named as a salt.

Experiment: Solubility of sertraline salt forms
Conditions: medium not given; aqueous solubility

In the case of “sertraline mesylate [Sertraline mesylate Form C]”, the Solubility is reported as 4200 µg/mL.

“sertraline besylate [Sertraline besylate salt]” showed a Solubility of 300 µg/mL.

In the case of `CN[C@H]1CC[C@@H](c2ccc(Cl)c(Cl)c2)c2ccccc21` [Sertraline lactate Form A, sertraline lactate], the Solubility is reported as 1900 µg/mL.

In the case of `CN[C@H]1CC[C@@H](c2ccc(Cl)c(Cl)c2)c2ccccc21` [sertraline HBr salt, sertraline HBr], the Solubility is reported as 600 µg/mL.
